The experiment has as its target T1, human CB1 receptor (Homo sapiens, UniProt P21554).
T1 construct: expressed in transfected cells; host or cells: CHO (Chinese Hamster Ovary) cells
Kind of experiment: In-vitro determination of efficacy and potency at the human CB1 receptor expressed in CHO cells (luciferase reporter assay). The format is cell-based. To be noted: CHO cells expressing the human CB1 receptor and a luciferase reporter gene; 5 h incubation at 37° C. As to the method:
Methods to determine receptor binding as well as in vitro biological activity of cannabinoid receptor modulators are well known in the art. In general, expressed receptor is contacted with the compound to be tested and binding or stimulation or inhibition of a functional response is measured.
In-Vitro Determination of Efficacy and Potency at the Human CB1 Receptor Expressed in CHO Cells
Chinese Hamster Ovary (CHO) cells expressing the human CB1 receptor and a luciferase reporter gene were suspended in phenol red/serum free DMEM/F-12 nut mix containing penicillin/streptomycin (50 U/50 μg/ml) and fungizone (1 μg/ml) and seeded into 96 well plates at a density of 3×10^4 cells per well (100 μl final volume). Cells were incubated overnight (approx. 18 h at 37° C., 5% CO2/95% air) prior to assay.
The test compound (10 mM solution in dimethylsulfoxide) was diluted in F12 Nut Mix to give a range of stock solutions from 0.11 mM to 0.11 nM. The stock solutions (10 μl) were added directly to the relevant wells. The plates were incubated at 37° C. for 5 h to allow agonist-induced expression of the luciferase enzyme. Under subdued light, LucLite substrate (Packard; reconstituted as per manufacturer's instructions; 100 μl) was added to each well. Plates were covered with Top Seal and then incubated at room temperature for 5 minutes before counting on the Packard TopCount (single photon counting, 0.01 minute count time, 5 minute count delay).
A “best-fit” curve was fitted by a minimum sum of squares method to the plot of counts per second (CPS) against compound concentration (M) to obtain an EC50 value.
(In a reporter assay the amount or activity of a reporter protein is the signal.)
T1 sequence (P21554 whole entry): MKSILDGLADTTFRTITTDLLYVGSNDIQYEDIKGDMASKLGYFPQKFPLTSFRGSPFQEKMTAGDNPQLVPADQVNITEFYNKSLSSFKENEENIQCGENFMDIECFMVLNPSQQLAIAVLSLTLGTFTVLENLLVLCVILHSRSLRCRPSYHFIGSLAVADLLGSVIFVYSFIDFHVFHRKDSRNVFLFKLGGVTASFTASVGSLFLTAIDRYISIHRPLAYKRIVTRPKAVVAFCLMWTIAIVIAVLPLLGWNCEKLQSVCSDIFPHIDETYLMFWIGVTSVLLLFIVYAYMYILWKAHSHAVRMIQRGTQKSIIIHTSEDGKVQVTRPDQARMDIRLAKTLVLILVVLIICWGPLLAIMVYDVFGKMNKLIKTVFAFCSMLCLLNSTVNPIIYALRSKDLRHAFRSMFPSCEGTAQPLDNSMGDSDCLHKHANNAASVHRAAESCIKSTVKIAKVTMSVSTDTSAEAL
As to `NC(=O)CN1CCN(Cc2nc(-c3cn(CC4CCOCC4)c4c(Cl)cccc34)ns2)CC1` [Example 1, 3-({5-[4-(Carbamoylmethyl)piperazin-1-yl]methyl}-[1,2,4]-thiadiazol-3-yl)-7-chloro-1-(tetrahydropyran-4-yl)methyl-1H-indole], a half-maximal effect (EC50) was put at 15.8 nM. This counts as double-digit nanomolar. As to `CCNC(=O)CN1CCN(Cc2nc(-c3cn(CC4CCOCC4)c4c(Cl)cccc34)ns2)CC1` [Example 3, 7-Chloro-3-({5-[4-(ethylcarbamoyl)methylpiperazin-1-yl]methyl}-[1,2,4]-thiadiazol-3-yl)-1-(tetrahydropyran-4-yl)methyl-1H-indole], the EC50 was 39.8 nM.

Regarding `CCc1cccc2c(-c3nsc(CN4CCN(CC(=O)NC(C)C)CC4)n3)cn(CC3CCOCC3)c12` [Example 6b, 7-Ethyl-3-({5-[4-(N-isopropylcarbamoyl)methylpiperazin-1-yl]methyl}-[1,2,4]-thiadiazol-3-yl)-1-(tetrahydropyran-4-yl)methyl-1H-indole], the EC50 was 50.1 nM. The same measure for `CCc1cccc2c(-c3nsc(CN4CCN(CC(=O)OC)CC4)n3)cn(CC3CCOCC3)c12` [Example 6d, 7-Ethyl-3-({5-[4-(methoxycarbonylmethyl)piperazin-1-yl]methyl}-[1,2,4]-thiadiazol-3-yl)-1-(tetrahydropyran-4-yl)methyl-1H-indole]: 63.1 nM; for `COc1cccc2c(-c3nsc(CN4CCN(CC(N)=O)CC4)n3)cn(CC3CCOCC3)c12` [Example 7a, 3-({5-[4-(Carbamoylmethyl)piperazin-1-yl]methyl}-[1,2,4]-thiadiazol-3-yl)-7-methoxy-1-(tetrahydropyran-4-yl)methyl-1H-indole]: 100 nM. The same measure for `NC(=O)CN1CCN(Cc2nc(-c3cn(CC4CCOCC4)c4c(Cl)cccc34)no2)CC1` [Example 11, 3-({5-[4-(Carbamoylmethyl)piperazin-1-yl]methyl}-[1,2,4]-oxadiazol-3-yl)-7-chloro-1-(tetrahydropyran-4-yl)methyl-1H-indole]: 79.4 nM; for `O=S1(=O)CCC(Cn2cc(-c3noc(CN4CCN(Cc5ncon5)CC4)n3)c3cccc(Cl)c32)CC1` [Example 17, 7-Chloro-3-({5-[4-([1,2,4]oxadiazol-3-ylmethyl)piperazin-1-yl]methyl}-[1,2,4]-oxadiazol-3-yl)-1-(1,1-dioxo-hexahydrothiopyran-4-yl)methyl-1H-indole]: 158 nM; for `NC(=O)CN1CCCN(Cc2nc(-c3cn(CC4CCOCC4)c4c(Cl)cccc34)no2)CC1` [Example 21d, 3-{5-[4-(Carbamoylmethyl)-homopiperazin-1-ylmethyl]-[1,2,4]-oxadiazol-3-yl}-7-chloro-1-[(tetrahydropyran-4-yl)methyl]-1H-indole]: 63.1 nM. The result for `CNC(=O)CN1CCN(Cc2nc(-c3cn(CC4CCOCC4)c4c(Cl)cccc34)no2)C[C@H]1CO` [Example 24, (S)-7-Chloro-3-[5-[3-hydroxymethyl-4-(methylcarbamoylmethyl)piperazin-1-ylmethyl]-[1,2,4]-oxadiazol-3-yl]-1-[(tetrahydropyran-4-yl)methyl]-1H-indole] reads 12.6 nM; that for `NC(=O)CN1CCN(Cc2csc(-c3cn(CC4CCOCC4)c4c(Cl)cccc34)n2)CC1` [Example 31, 3-({4-[4-(Carbamoylmethyl)piperazin-1-yl]methyl}-[1,3]-thiazol-2-yl)-7-chloro-1-(tetrahydropyran-4-yl)methyl-1H-indole], 63.1 nM.

Broadly, the EC50 is the concentration needed to bring the measured effect to its halfway point. Low values mean greater potency, high ones weaker potency.
